Assay results: patent US20170009228A1, “BIOLOGICAL MATERIALS AND THERAPEUTIC USES THEREOF” (IMPERIAL INNOVATIONS LIMITED, priority 2014, published 2017)
Where no end group is shown, it is not given here. [ ]: non-standard residue; d: D form. Cit = NC(=O)NCCC[C@H](N)C(=O)O

How the values were obtained:
RA sera = experiment: IgG response to cyclic citrullinated FBG peptides in RA and control sera; type: binding, human; conditions: 20 RA and 20 control sera
Description: (A) Peptides with sequences corresponding to the amino acid sequence of FBG were designed, with the addition of cysteine residues at the amino and carboxy termini and the exchange of arginine for citrulline residues at positions identified by LC-MS/MS. (B) IgG response to citrullinated FBG peptides and arginine containing control peptides in patients with rheumatoid arthritis (RA; n=20) and healthy controls (n=20). The 95th percentile of the control sera was used to determine positivity (dashed line). Mann-Whitney U test was used to calculate p values for differences between groups (n.s.=no significant difference, *=p<0.05 and **=p<0.01, ***=p<0.001, […]).
With reference to FIG. 31, the antibody response in 20 RA and 20 control sera to 6 cyclic FBG peptides, encompassing citrulline residues was evaluated.

[1] = system: RA synovial membrane cultures; experiment: Spontaneous cytokine synthesis in RA synovial membrane cultures incubated with FBG peptides; type: cell-based, human; conditions: for inhibition of cytokine synthesis at the highest concentrations / TNF and IL8 synthesis: RA synovial membrane cultures; for inhibition of cytokine synthesis at the highest concentrations: dose dependent, 25, 100 or 250 μM peptide, 24 h; for TNF and IL8 synthesis: spontaneous cytokine synthesis
Procedure: RA membrane cells (representing a mixed population of all synovial cell types) were isolated from synovial membranes obtained from patients undergoing joint replacement surgery (Brennan (1989)). Synovial membrane tissue was digested in RPMI 1640 (GIBCO) containing 5% fetal calf serum (FCS) (GIBCO), 5 mg/ml collagenase type IV (Sigma) and 0 15 mg/ml DNAse type I (Sigma) and incubated at 37° C. for 2 h.
Immediately after isolation, RA membrane cells were cultured at 1×10^5 cells/well in RPMI 1640 containing 10% (v/v) FBS and 100 U/ml penicillin/streptomycin in 96-well tissue culture plates. Cells were incubated for 24 h at 37° C. with no addition, buffer control (PBS, 1% BSA, 0.01% NaN3), or with 25 μm, 100 μM or 250 μM of each FBG spanning peptide.
(§1) Supernatants were examined for the presence of the cytokines TNF-α, IL-6, and IL-8 by enzyme-linked immunosorbent assay (ELISA) according to the manufacturer's instructions (R&D systems). Absorbance was read on a spectrophotometric ELISA plate reader (Labsystems Multiscan Biochromic, Vantaa, Finland) and analyzed using the Ascent software program (Thermo Labsystems, Altrincham, UK).

[2] = system: primary human macrophages; experiment: Stimulation of primary human macrophages with each FBG peptide; type: cell-based; conditions: 1 or 20 μM FBG peptide, 24 h
Procedure: (§2) After incubation the tissue was pipetted through a nylon mesh into a sterile beaker. The cells were then washed three times in complete medium (RPMI 1640 supplemented with 10% FCS). RA synovial fibroblasts were isolated from the mixed population of RA membrane cells by selection in DMEM (Bio-Whittaker) supplemented with 10% FBS, […], 100 U/ml penicillin, and streptomycin. Human monocytes were isolated from peripheral blood (London Blood Bank) and macrophages were derived from monocytes after differentiation for 4 days with 100 ng/ml of M-CSF.
(§3) Macrophages were cultured at 1×10^5 cells/well in RPMI 1640 containing 5% (v/v) FBS and 100 U/ml penicillin/streptomycin in 96-well tissue culture plates for 24 h before stimulation. Cells were incubated for 24 h at 37° C. with no addition, 1.0 μM FBG, 1 ng/ml LPS or 1 or 20 μM FBG peptide. Where stated, cells were pre-incubated with 20 μM FBG peptides for 15 min.
as §1

human macrophages = experiment: FBG or LPS induced cytokine synthesis in human macrophages pre-incubated with FBG peptides; type: cell-based; conditions: pre-incubation with 20 μM peptide, 24 h; for FBG mediated cytokine synthesis: then 1 μM whole FBG
Procedure: as §2, §3, §1

TLR2 = experiment: Cytokine synthesis in embryonic fibroblasts or macrophages from TLR2 deficient mice; type: cell-based
Procedure: (§4) MEFs express high levels of mRNA of all 9 murine TLRs and are specifically and highly responsive to TLR ligand activation. […] MEFs were isolated from d13 embryos harvested from age-matched, pregnant female wild type, TLR2, TLR4 and null mice (as described in Todaro (1963)). Fibroblasts were cultured at 2×10^4 cells/well in DMEM containing 10% (v/v) FBS and 100 U/ml penicillin/streptomycin in 96-well tissue culture plates for 24 hours before stimulation.
(§5) BMDMs were derived by aspirating the femurs of age matched female wild type, TLR2 and TLR4 null mice as described in Butler (1999)) and culturing the cells for 7 days in DMEM, 20% (v/v) FBS, 10 ml/L (v/v) antibiotic-antimycotic solution PSA, 50 μM β-Mercaptoethanol and 10 ng/ml M-CSF. Macrophages were then cultured at 1×10^5 cells/well in DMEM, 20% (v/v) FBS, 10 ml/L (v/v) antibiotic-antimycotic solution PSA, 50 μM β-Mercaptoethanol in 96-well tissue culture plates for 24 hours before stimulation.
(§6) Cells were incubated for 24 hours at 37° C. with the indicated doses of tenascin-C and recombinant tenascin-C fragments (1.0 μM-1.0 nM). Cells were also stimulated where indicated with LPS (1 ng/ml for human macrophages, 10 ng/ml for human fibroblasts, RA membrane cells and HEKs, 100 ng/ml for MEFS and BMDMs and 10 ng/ml for HEKS), PAM3 (10 ng/ml for human macrophages, human fibroblasts, and HEKs, 100 ng/ml for MEFs and BMDMs), murine IL-1 (5 ng/ml for MEFS) and murine TNF-α (100 ng/ml for MEFS). Unless specifically stated otherwise rough LPS was used for in vitro studies.
(§7) Supernatants were subsequently examined for the presence of the cytokines TNF-α, IL-6, and IL-8 by enzyme-linked immunosorbent assay (ELISA) according to the manufacturer's instructions. Absorbance was read on a spectrophotometric ELISA plate reader (Labsystems Multiscan Biochromic, Vantaa, Finland) and analyzed using the Ascent software program (Thermo Labsystems, Altrincham, UK).

MyD88 = experiment: Cytokine synthesis in embryonic fibroblasts from MyD88 deficient mice; type: cell-based; conditions: for cytokine synthesis: MEFs from MyD88 deficient mice, 24 h; for responsiveness after re-transfection of wild type MyD88: MyD88 deficient MEFs, data not shown
Procedure: as §4, §6, §7

TLR4 = experiment: Cytokine synthesis in embryonic fibroblasts or macrophages from TLR4 deficient mice; type: cell-based
Procedure: as §4, §5, §6, §7

[3] = system: synovial fibroblasts from RA patients (RAF); experiment: Cell adhesion to coated FBG, RA synovial fibroblasts; type: cell-based, human; conditions: coated wells, 45 minutes, crystal violet
Procedure: (§8) (A) The sequence identified to bind integrin ≢vβ3 is shown in white (Yokoyama et al., 2000). Within this sequence two Arginines (shown in black) were identified to be citrullinated. (B) Wells of a 96 well plate were coated with different concentrations of FBG, citrullinated FBG (cFBG), FBG incubated in buffer without Calcium (FBG —Ca^2+), or FBG incubated without PAD (FBG -PAD). As a positive control wells were coated with Fibronectin (FN) (1 ug/ml), and coating with BSA (10 mg/ml) served as negative control. Plates were incubated with human dermal fibroblasts (HDF) or synovial fibroblasts from RA patients (RAF) for 45 minutes and adhesion was measured by determining absorbance of attached cells after staining with crystal violet (0.1%). Data are shown as the mean of at least four independent experiments+s.e.m., *=p<0.05, **=p<0.01.

[4] = system: human dermal fibroblasts (HDF); experiment: Cell adhesion to coated FBG, human dermal fibroblasts; type: cell-based; conditions: coated wells, 45 minutes, crystal violet
Procedure: as §8

[5] = system: primary human macrophages; experiment: TNF synthesis in primary human macrophages stimulated with native or citrullinated FBG; type: cell-based; conditions: 0.1-1.0 μM, 24 h
Procedure: Equal volumes of protein and 2× citrullination buffer (200 mM Tris HCl, pH 7.4, 20 mM CaCl2, 10 mM DTT) were mixed. 8.75 U rabbit skeletal PAD (product number P1584 from Sigma) per mg substrate protein was added and incubated for 3 hours at 37° C. or 2 hours at 50° C. Citrullination was confirmed by size shift visualized by coomassie blue staining of SDS PAGE or by AMC detection.
Primary human macrophages were isolated as described above and cultured at 1×10^5 cells/well in RPMI 1640 containing 5% (v/v) FBS and 100 U/ml penicillin/streptomycin in 96-well tissue culture plates for 24 h before stimulation. Cells were incubated for 24 h at 37° C. with no addition (UN), different concentrations (uM) of native FBG (nFBG) or cit FBG (cFBG) or citrullination buffer alone (CIT) or cit buffer plus PAD enzyme (CIT+PAD).
Supernatants were examined for the presence of the cytokines TNF-α by enzyme-linked immunosorbent assay (ELISA) according to the manufacturer's instructions (R&D systems). Absorbance was read on a spectrophotometric ELISA plate reader (Labsystems Multiscan Biochromic, Vantaa, Finland) and analyzed using the Ascent software program (Thermo Labsystems, Altrincham, UK).

In the case of “CEMKL-Cit-PSNF-Cit-NLEGRRKRC (CEMKL[Cit]PSNF[Cit]NLEGRRKRC; not fully specified (bridges); printed as CEMKL-Cit-PSNF-Cit-NLEGRRKRC; also: cyclic, bridge not given here) [CIT209/214]”, the “antibody response in RA sera and control sera” value (from here on “antibody response”) (RA sera) is reported as “detected in RA sera but not control sera”.

With “CEMKLRPSNFRNLEG-Cit-Cit-KRC (CEMKLRPSNFRNLEG[Cit][Cit]KRC; not fully specified (bridges); printed as CEMKLRPSNFRNLEG-Cit-Cit-KRC; also: cyclic, bridge not given here) [CIT219/220]” the “antibody response” value (RA sera) was “detected in RA sera but not control sera”.

With “CVFLRRKNG-Cit-ENFYQNWC (CVFLRRKNG[Cit]ENFYQNWC; not fully specified (bridges); printed as CVFLRRKNG-Cit-ENFYQNWC; also: cyclic, bridge not given here) [CIT55]” the “antibody response” value (RA sera) was “detected in RA sera but not control sera”.

For “ELRVDLRDHGETAFAVYDKFSVGDAKTRYK [Peptide 5]”, the TNF synthesis ([1]; RA membrane cells, 24 h with peptide) was “no effect”, the “maximal inhibition of IL8 synthesis” value ([1]; RA membrane cells, dose dependent) was 81% and the cytokine synthesis [2] was “induced cytokine synthesis in a dose dependent manner”. The “FBG mediated cytokine synthesis” value (human macrophages) was “specifically blocked”.

“KTRYKLKVEGYSGTAGDSMAYHNGRSFST [Peptide 6]” was tested, and the cytokine synthesis [2] was “induced cytokine synthesis in a dose dependent manner”.

With Pam3Cys-Ser-Lys4 [reference compound] the cytokine synthesis (TLR2) was “unresponsive”, the cytokine synthesis (MyD88) was “abolished” and the “responsiveness after re-transfection of wild type MyD88” value (MyD88) was “restored the responsiveness”. For the same molecule, the cytokine synthesis (TLR4) was “did respond”.

“TIGLLYPFPKDCSQAMLNGDTTSGLYTIYL [Peptide 1]” was tested, and the cytokine synthesis [2] was “induced cytokine synthesis in a dose dependent manner”.

With TNF-α [reference compound] the cytokine synthesis (MyD88) was “unaffected”.

With “WIVFLRRKNGRENFYQNWKAYAAGFGDRRE [Peptide 3]” the “inhibition of cytokine synthesis at the highest concentrations” value [1] was 95% and the “TNF and IL8 synthesis” value ([1]; 24 h with peptide) was “inhibited”.

“WYRNCHRVNLMGRYGDNNHSQGVNWFHWKG [Peptide 8]” was tested, and the “inhibition of cytokine synthesis at the highest concentrations” value [1] was 56%, the “TNF and IL8 synthesis” value ([1]; 24 h with peptide) was “inhibited” and the “cytokine synthesis in response to LPS” value (human macrophages; then 1 ng/ml LPS) was “blocked”. For the same molecule, the “FBG mediated cytokine synthesis” value (human macrophages) was “blocked”.

In the case of “cFBG: FBG domain of tenascin-C citrullinated in vitro with PAD”, the “adhesion of synovial fibroblasts from RA joints (RAF)” value [3] is reported as “reduces adhesion”, the “adhesion of human dermal fibroblasts (HDF)” value [4] is reported as “reduces adhesion” and the “cytokine (TNFα) synthesis compared with native FBG” value [5] is reported as “better at stimulating cytokine (e.g. TNFα) synthesis”.

B1: IL-1: murine IL-1 used to stimulate MEFs (protein, UniProt P10749 118-269, looked up)
Interleukin-1 beta: VPIRQLHYRLRDEQQKSLVLSDPYELKALHLNGQNINQQVIFSMSFVQGEPSNDKIPVALGLKGKNLYLSCVMKDGTPTLQLESVDPKQYPKKKMEKRFVFNKIEVKSKVEFESAEFPNWYISTSQAEHKPVFLGNNSGQDIIDFTMESVSS
In the case of B1, the cytokine synthesis (TLR2) is reported as “responsive”, the cytokine synthesis (MyD88) is reported as “abolished” and the “responsiveness after re-transfection of wild type MyD88” value (MyD88) is reported as “restored the responsiveness”. The cytokine synthesis (TLR4) was “did respond”.
